These results are taken from PubChem BioAssay AID330 (DTP/NCI, 2004).

For the test, the system named is P388 leukemia ip, CD2F1 mice, survival T/C. The test can be described thus: NCI In Vivo Anticancer Drug Screen. Data for tumor model P388 Leukemia (intraperitoneal) in CD2F1 (CDF1) mice. Conditions: endpoint: median survival time, higher = longer survival. The method in brief: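 Mice carrying the transplanted tumor received test compound or vehicle. Survival was recorded in each group, and the value is the treated-group measurement divided by that of the vehicle-treated control group.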

Each structure is given as a SMILES string. “And” between values parts separate entries of the source, which are not always exact repeats. Identical values can stand only once. Inconclusive results and toxic doses are left out.

As for `Nc1cc2c(c[n+](CCCCCCCCCC[n+]3cc4c5ccccc5c(N)cc4c4ccccc43)c3ccccc23)c2ccccc12`, the T/C runs as follows: (dose: 0.78 mg/kg/injection, schedule: Q04DX003 (ip), vehicle: other) 118 % of control; (dose: 12.5 mg/kg/injection, schedule: Q04DX003 (ip), vehicle: distilled water + Tween-80) 166 % of control; (dose: 25.0 mg/kg/injection, schedule: Q04DX003 (ip), vehicle: distilled water + Tween-80) 159 % of control; (dose: 25.0 mg/kg/injection, schedule: Q04DX003 (ip), vehicle: other) 160 % of control and 166 % of control; (dose: 50.0 mg/kg/injection, schedule: Q04DX003 (ip), vehicle: distilled water + Tween-80) 165 % of control; (dose: 50.0 mg/kg/injection, schedule: Q04DX003 (ip), vehicle: other) 157 % of control and 160 % of control. Besides, the T/C reads like this: (dose: 100.0 mg/kg/injection, schedule: Q04DX003 (ip), vehicle: distilled water + Tween-80) 161 % of control; (dose: 200.0 mg/kg/injection, schedule: Q04DX003 (ip), vehicle: distilled water + Tween-80) 161 % of control; (dose: 200.0 mg/kg/injection, schedule: Q04DX003 (ip), vehicle: other) 169 % of control; (dose: 400.0 mg/kg/injection, schedule: Q04DX003 (ip), vehicle: distilled water + Tween-80) 175 % of control.

In the case of `COC(=O)C1=C(C(=O)OC)C23C(=O)c4ccc(OC)c(OC)c4C1(OC)N2CCc1cc2c(cc13)OCO2` (centres undefined), the T/C runs as follows: (dose: 50.0 mg/kg/injection, schedule: Q04DX002 (ip), vehicle: saline with Tween-80) 96 % of control; (dose: 100.0 mg/kg/injection, schedule: Q04DX002 (ip), vehicle: saline with Tween-80) 96 % of control; (dose: 200.0 mg/kg/injection, schedule: Q04DX002 (ip), vehicle: saline with Tween-80) 100 % of control.

On to `CC(=O)Nc1ccc(S(=O)(=O)/C(=C\c2ccc(Cl)o2)c2ccc([N+](=O)[O-])o2)cc1`, for which the T/C was 86 % of control (dose: 50.0 mg/kg/injection, schedule: Q01DX009 (ip), vehicle: suspension in saline); 88 % of control (dose: 100.0 mg/kg/injection, schedule: Q01DX009 (ip), vehicle: suspension in saline); 92 % of control (dose: 200.0 mg/kg/injection, schedule: Q01DX009 (ip), vehicle: suspension in saline).

Consider `CCc1ccc(N2C(=O)C(CC(=O)O)SC23C(=O)N(Cc2ccccc2)c2ccccc23)cc1` (centres undefined), for which the T/C was 94 % of control (dose: 60.0 mg/kg/injection, schedule: Q01DX005 (ip), vehicle: saline with Tween-80) and 97 % of control (dose: 120.0 mg/kg/injection, schedule: Q01DX005 (ip), vehicle: saline with Tween-80).

Take `C/C(=N\N=C(N)N)c1c(C)nn(C(=N)N)c1C`: the T/C was 99 % of control (dose: 15.0 mg/kg/injection, schedule: Q01DX005 (ip), vehicle: saline); 98 % of control (dose: 30.0 mg/kg/injection, schedule: Q01DX005 (ip), vehicle: saline); 99 % of control and 111 % of control (dose: 60.0 mg/kg/injection, schedule: Q01DX005 (ip), vehicle: saline).

Consider `CNC(=O)CC(=O)NC`, for which the T/C runs as follows: (dose: 100.0 mg/kg/injection, schedule: Q04DX003 (ip), vehicle: suspension in saline) 93 % of control; (dose: 200.0 mg/kg/injection, schedule: Q04DX003 (ip), vehicle: suspension in saline) 100 % of control; (dose: 400.0 mg/kg/injection, schedule: Q04DX003 (ip), vehicle: suspension in saline) 95 % of control.
